In assay [1] the target is T1, Glucagon receptor (Homo sapiens, UniProt P47871). The assay can be described thus: Antagonist activity at human GCGR expressed in CHO cells assessed as inhibition of glucagon-stimulated cAMP production preincubated for 30 mins followed by glucagon induction measured after 45 mins by LANCE assay. It counts as functional, cell-based. In general terms: cAMP levels reflect the balance of adenylyl cyclase and phosphodiesterase activity.

For assay [2], the target named is T1, Glucagon receptor. As to the kind of experiment: biochemical. It counts as cell-based, CHO.
Description: Displacement of [125I]-glucagon from recombinant human GCGR expressed in CHO cells after 60 mins by scintillation counting analysis
Assay [3] concerns the target Glucagon receptor (Mus musculus, UniProt Q61606). It counts as cell membranes, Liver, Membrane.
Description: Displacement of [125I]-glucagon from GCGR in mouse liver membranes after 60 mins by scintillation counting analysis
The target in assay [4] is Glucagon-like peptide 1 receptor (Homo sapiens, UniProt P43220). The assay can be described thus: Antagonist activity at human GLP-1R expressed in CHO cells assessed as inhibition of GLP-1-stimulated cAMP production preincubated for 30 mins followed by GLP-1 induction measured after 45 mins by LANCE assay. The class given is functional, cell-based.
Sequence of Glucagon-like peptide 1 receptor (P43220 whole entry): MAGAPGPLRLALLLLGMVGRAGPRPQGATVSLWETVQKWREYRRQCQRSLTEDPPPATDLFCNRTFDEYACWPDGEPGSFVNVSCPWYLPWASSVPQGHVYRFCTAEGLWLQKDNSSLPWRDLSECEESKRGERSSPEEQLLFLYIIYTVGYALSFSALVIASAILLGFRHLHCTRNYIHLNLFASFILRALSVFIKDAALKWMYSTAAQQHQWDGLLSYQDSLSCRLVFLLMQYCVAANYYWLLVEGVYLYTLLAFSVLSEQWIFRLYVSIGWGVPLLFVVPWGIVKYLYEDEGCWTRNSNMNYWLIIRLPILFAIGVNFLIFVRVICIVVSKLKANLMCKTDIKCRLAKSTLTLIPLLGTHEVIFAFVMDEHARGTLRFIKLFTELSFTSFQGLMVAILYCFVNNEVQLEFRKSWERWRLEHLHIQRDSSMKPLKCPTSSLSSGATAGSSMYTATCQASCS

Each structure is given as a SMILES string.

Sequence of Glucagon receptor (Mus musculus, UniProt Q61606) (Q61606 whole entry): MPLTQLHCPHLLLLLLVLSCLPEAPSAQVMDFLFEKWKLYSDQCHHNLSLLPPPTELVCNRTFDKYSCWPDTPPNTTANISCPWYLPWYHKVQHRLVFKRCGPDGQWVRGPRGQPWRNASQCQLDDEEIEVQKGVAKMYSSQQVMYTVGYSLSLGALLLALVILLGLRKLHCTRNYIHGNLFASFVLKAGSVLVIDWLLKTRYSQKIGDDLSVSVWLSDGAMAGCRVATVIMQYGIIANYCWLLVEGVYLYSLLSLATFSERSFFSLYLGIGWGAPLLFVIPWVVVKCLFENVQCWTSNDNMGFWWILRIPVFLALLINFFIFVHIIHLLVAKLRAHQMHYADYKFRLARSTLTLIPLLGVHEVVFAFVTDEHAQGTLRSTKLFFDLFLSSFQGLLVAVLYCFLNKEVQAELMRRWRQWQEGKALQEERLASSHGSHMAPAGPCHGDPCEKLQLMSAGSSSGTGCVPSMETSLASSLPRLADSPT
T1 sequence (P47871 whole entry): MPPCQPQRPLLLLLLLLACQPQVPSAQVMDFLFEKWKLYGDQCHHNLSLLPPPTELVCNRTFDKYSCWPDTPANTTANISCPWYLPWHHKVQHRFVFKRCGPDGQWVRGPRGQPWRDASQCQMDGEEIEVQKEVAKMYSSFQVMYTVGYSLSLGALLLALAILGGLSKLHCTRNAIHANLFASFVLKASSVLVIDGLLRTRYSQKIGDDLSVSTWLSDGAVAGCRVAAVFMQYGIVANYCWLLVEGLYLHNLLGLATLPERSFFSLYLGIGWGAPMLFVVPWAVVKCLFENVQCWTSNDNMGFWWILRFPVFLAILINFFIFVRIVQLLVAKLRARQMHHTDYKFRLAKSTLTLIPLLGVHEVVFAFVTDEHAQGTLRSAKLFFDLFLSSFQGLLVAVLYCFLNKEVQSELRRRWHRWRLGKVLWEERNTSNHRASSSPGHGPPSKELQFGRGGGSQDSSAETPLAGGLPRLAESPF

Usually IC50 stands for the midpoint of a concentration-inhibition curve. For `C[C@H](CC(=O)O)NC(=O)c1ccc([C@@H](CCC(C)(C)C)N2C(=O)C(c3cc(Cl)cc(Cl)c3)=N[C@]23CC[C@@H](C(C)(C)C)CC3)cc1`, the IC50 is 530 nM in assay [1], 120 nM in assay [2], 6100 nM in assay [3] and more than 10000 nM in assay [4].
The corresponding values for `CCCC[C@H](c1ccc(C(=O)NCc2nn[nH]n2)cc1)N1C(=O)C(c2cc(Cl)cc(Cl)c2)=N[C@]12CC[C@@H](C(C)(C)C)CC2` are 380 nM, 23 nM, 420 nM and more than 10000 nM.
For the compound `CC[C@H](c1ccc(C(=O)NCc2nn[nH]n2)cc1)N1C(=O)C(c2cc(Cl)cc(Cl)c2)=N[C@]12CC[C@@H](C(C)(C)C)CC2`, the half-maximal inhibitory concentration (IC50) in assay [1] was 270 nM; in assay [2], 82 nM; in assay [3] it was 370 nM; in assay [4], more than 10000 nM.
On to `CC(C)(C)CC[C@H](c1ccc(C(=O)NCc2nn[nH]n2)cc1)N1C(=O)C(c2ccc(F)c(F)c2)=N[C@]12CC[C@@H](C(C)(C)C)CC2`, for which the IC50 in assay [1] is 180 nM; in assay [2], 13 nM; in assay [3], 170 nM; in assay [4], more than 10000 nM.
The corresponding values for `CC(C)(C)[C@H]1CC[C@]2(CC1)N=C(c1cc(Cl)cc(Cl)c1)C(=O)N2CCc1ccc(C(=O)NCCC(=O)O)cc1` are 170 nM, 170 nM, 1500 nM and more than 10000 nM.
For `C[C@H](c1ccc(C(=O)NCCC(=O)O)cc1)N1C(=O)C(c2ccc(F)c(Cl)c2)=N[C@]12CC[C@@H](C(C)(C)C)CC2` the same measures were 440 nM, 44 nM, 2300 nM and 4300 nM.
The corresponding values for `CC(C)(C)CC[C@H](c1ccc(C(=O)NCCC(=O)O)cc1)N1C(=O)C(c2cc(Cl)cc(Cl)c2)=N[C@]12CC[C@@H](C(C)(C)C)CC2` are 48 nM, 16 nM, 520 nM and 2000 nM.
As for `CC(C)(C)CC[C@H](c1ccc(C(=O)NCc2nn[nH]n2)cc1)N1C(=O)C(c2cc(F)cc(F)c2)=N[C@]12CC[C@@H](C(C)(C)C)CC2`, the half-maximal inhibitory concentration (IC50) in assay [1] is 110 nM; in assay [2] it was 23 nM; in assay [3], 140 nM; in assay [4] it was more than 10000 nM.
The corresponding values for `C[C@H](c1ccc(C(=O)NCCC(=O)O)cc1)N1C(=O)C(c2ccc(OC(F)(F)F)cc2)=N[C@]12CC[C@@H](C(C)(C)C)CC2` are 1100 nM, 67 nM, 8000 nM and more than 10000 nM.
`C[C@H](c1ccc(C(=O)NCCC(=O)O)cc1)N1C(=O)C(c2ccccc2Cl)=N[C@]12CC[C@@H](C(C)(C)C)CC2`: the IC50 in assay [1] was 2900 nM; in assay [2] it was 520 nM; in assay [3], 5400 nM; in assay [4] it was more than 10000 nM.
For the compound `CC(C)(C)CC[C@H](c1ccc(C(=O)NCc2nn[nH]n2)cc1)N1C(=O)C(c2cccc(C(F)(F)F)c2)=N[C@]12CC[C@@H](C(C)(C)C)CC2`, the IC50 in assay [1] is 180 nM; in assay [2], 13 nM; in assay [3], 140 nM; in assay [4] it was more than 10000 nM.
The corresponding values for `C[C@H](c1ccc(C(=O)NCCC(=O)O)cc1)N1C(=O)C(c2ccc(Cl)c(Cl)c2)=N[C@]12CC[C@@H](C(C)(C)C)CC2` are 550 nM, 95 nM, 3200 nM and 4400 nM.
The corresponding values for `C[C@H](c1ccc(C(=O)NC[C@H](O)C(=O)O)cc1)N1C(=O)C(c2cc(Cl)cc(Cl)c2)=N[C@]12CC[C@@H](C(C)(C)C)CC2` are more than 10000 nM, 160 nM, 1500 nM and more than 10000 nM.
With `CC(C)(C)CC[C@H](c1ccc(C(=O)NCc2nn[nH]n2)cc1)N1C(=O)C(c2ccc(C(F)(F)F)cc2)=N[C@]12CC[C@@H](C(C)(C)C)CC2`, the 50% inhibitory concentration (IC50) in assay [1] is 160 nM; in assay [2], 7 nM; in assay [3], 190 nM; in assay [4], more than 10000 nM.
For `CC(C)(C)CC[C@H](c1ccc(C(=O)NCc2nn[nH]n2)cc1)N1C(=O)C(c2ccc(F)cc2)=N[C@]12CC[C@@H](C(C)(C)C)CC2` the same measures were 240 nM, 13 nM, 90 nM and more than 10000 nM.
The corresponding values for `C[C@H](c1ccc(C(=O)Nc2nnn[nH]2)cc1)N1C(=O)C(c2cc(Cl)cc(Cl)c2)=N[C@]12CC[C@@H](C(C)(C)C)CC2` are 750 nM, 470 nM, more than 10000 nM and 800 nM.
For `CC(C)[C@H]1CC[C@]2(CC1)N=C(c1cc(Cl)cc(Cl)c1)C(=O)N2[C@H](CCC(C)(C)C)c1ccc(C(=O)NCc2nn[nH]n2)cc1` the same measures were 52 nM, 31 nM, 200 nM and more than 10000 nM.
For the compound `C[C@H](c1ccc(C(=O)NCCC(=O)O)cc1)N1C(=O)C(c2cccc(F)c2)=N[C@]12CC[C@@H](C(C)(C)C)CC2`, the IC50 in assay [1] is 560 nM; in assay [2], 490 nM; in assay [3], 4400 nM; in assay [4], more than 10000 nM.
As for `CC(C)(C)CC[C@H](c1ccc(C(=O)NCc2nn[nH]n2)cc1)N1C(=O)C(c2cnccc2C(F)(F)F)=N[C@]12CC[C@@H](C(C)(C)C)CC2`, the IC50 in assay [1] was 1200 nM; in assay [2] it was 22 nM; in assay [3], 96 nM; in assay [4], more than 10000 nM.
The corresponding values for `C[C@H](c1ccc(C(=O)NCCC(=O)O)cc1)N1C(=O)C(c2cccc(Cl)c2)=N[C@]12CC[C@@H](C(C)(C)C)CC2` are 480 nM, 130 nM, 3300 nM and 3900 nM.
The corresponding values for `C[C@H](c1ccc(C(=O)NC[C@@H](O)C(=O)O)cc1)N1C(=O)C(c2cc(Cl)cc(Cl)c2)=N[C@]12CC[C@@H](C(C)(C)C)CC2` are more than 10000 nM, 190 nM, 1100 nM and more than 10000 nM.
The corresponding values for `CC(C)(C)CC[C@H](c1ccc(C(=O)NCc2nn[nH]n2)cc1)N1C(=O)C(c2cccc(Cl)c2)=N[C@]12CC[C@@H](C(C)(C)C)CC2` are 130 nM, 14 nM, 130 nM and more than 10000 nM.
On to `C[C@H](c1ccc(C(=O)NCCC(=O)O)cc1)N1C(=O)C(c2cccc(C(F)(F)F)c2)=N[C@]12CC[C@@H](C(C)(C)C)CC2`, for which the IC50 in assay [1] turned out to be 280 nM; in assay [2] it was 720 nM; in assay [3], 2200 nM; in assay [4], 6300 nM.
For `C[C@H](c1ccc(C(=O)NCCC(=O)O)cc1)N1C(=O)C(c2ccccc2F)=N[C@]12CC[C@@H](C(C)(C)C)CC2` the same measures were 350 nM, 1100 nM, more than 10000 nM and more than 10000 nM.
For `CC(C)(C)CC[C@H](c1ccc(C(=O)NCc2nn[nH]n2)cc1)N1C(=O)C(c2cccc(F)c2)=N[C@]12CC[C@@H](C(C)(C)C)CC2` the same measures were 140 nM, 21 nM, 100 nM and more than 10000 nM.
The corresponding values for `C[C@H](c1ccc(C(=O)NCCC(=O)O)cc1)N1C(=O)C(c2cc(Cl)cc(Cl)c2)=N[C@]12CC[C@@H](C(C)(C)C)CC2` are 140 nM, 96 nM, 1200 nM and 6400 nM.
Take `C[C@H](c1ccc(C(=O)NCCC(=O)O)cc1)N1C(=O)C(c2cccc(C3CC3)c2)=N[C@]12CC[C@@H](C(C)(C)C)CC2`: the IC50 in assay [1] is 340 nM; in assay [2] it was 56 nM; in assay [3], 1700 nM; in assay [4], more than 10000 nM.
The corresponding values for `C[C@H](c1ccc(C(=O)NCCC(=O)O)cc1)N1C(=O)C(c2cc(Cl)ccc2F)=N[C@]12CC[C@@H](C(C)(C)C)CC2` are 750 nM, 340 nM, 4600 nM and more than 10000 nM.
With `CC1(CC[C@H](c2ccc(C(=O)NCc3nn[nH]n3)cc2)N2C(=O)C(c3cc(Cl)cc(Cl)c3)=N[C@]23CC[C@@H](C(C)(C)C)CC3)CC1`, the IC50 in assay [1] is 100 nM; in assay [2] it was 17 nM; in assay [3], 110 nM; in assay [4], more than 10000 nM.
The corresponding values for `C[C@H](c1ccc(C(=O)NCCC(=O)O)cc1)N1C(=O)C(c2cccc(Cl)c2F)=N[C@]12CC[C@@H](C(C)(C)C)CC2` are 630 nM, 620 nM, 4000 nM and more than 10000 nM.
Consider `CC(CN1C(=O)C(c2cc(Cl)cc(Cl)c2)=N[C@]12CC[C@@H](C(C)(C)C)CC2)c1ccc(C(=O)NCCC(=O)O)cc1` (some centres undefined), for which the 50% inhibitory concentration (IC50) worked out at 260 nM in assay [1], 890 nM in assay [2], 3300 nM in assay [3] and 7300 nM in assay [4].
The corresponding values for `CCC[C@H](c1ccc(C(=O)NCc2nn[nH]n2)cc1)N1C(=O)C(c2cc(Cl)cc(Cl)c2)=N[C@]12CC[C@@H](C(C)(C)C)CC2` are 220 nM, 55 nM, 500 nM and more than 10000 nM.
`COc1cccc(C2=N[C@]3(CC[C@@H](C(C)(C)C)CC3)N([C@H](CCC(C)(C)C)c3ccc(C(=O)NCc4nn[nH]n4)cc3)C2=O)c1`: the results for the IC50 in assay [1], in assay [2] and in assay [4] were 230 nM, 15 nM and more than 10000 nM, respectively.
The corresponding values for `CC(C)(C)CC[C@H](c1ccc(C(=O)NC[C@@H](O)C(=O)O)cc1)N1C(=O)C(c2cc(Cl)cc(Cl)c2)=N[C@]12CC[C@@H](C(C)(C)C)CC2` (mixture of isomers) are 400 nM, 149 nM and more than 10000 nM.

Source of the values: ChEMBL document CHEMBL3232855, “The discovery of N-((2H-tetrazol-5-yl)methyl)-4-((R)-1-((5r,8R)-8-(tert-butyl)-3-(3,5-dichlorophenyl)-2-oxo-1,4-diazaspiro[4.5]dec-3-en-1-yl)-4,4-dimethylpentyl)benzamide (SCH 900822): a potent and selective glucagon receptor antagonist” (J Med Chem, 2014).
